Where a SMILES comes first, the peptide text is derived from it. Bridges are numbered along the chain shown (N, C = ends). [ ]: non-standard residue; d: D form. ξ: configuration not given here. Trp(1-CH2COOH) = N[C@@H](Cc1cn(CC(=O)O)c2ccccc12)C(=O)O; Phe(3,4,5-F3) = N[C@@H](Cc1cc(F)c(F)c(F)c1)C(=O)O; Trp(1-Me) = Cn1cc(C[C@H](N)C(=O)O)c2ccccc21; Morpholine(3S-CO) = O=C(O)[C@@H]1COCCN1; Phe(4-F) = N[C@@H](Cc1ccc(F)cc1)C(=O)O; d(cisHyp) = O=C(O)[C@H]1C[C@@H](O)CN1; Bta = N[C@@H](Cc1csc2ccccc12)C(=O)O; Hyp = O=C(O)[C@@H]1C[C@@H](O)CN1; NMeF = CN[C@@H](Cc1ccccc1)C(=O)O; NMehSer = CN[C@@H](CCO)C(=O)O; NMeNle = CCCC[C@H](NC)C(=O)O; NMeV = CN[C@H](C(=O)O)C(C)C; Pip = O=C(O)[C@@H]1CCCCN1; hSer = N[C@@H](CCO)C(=O)O; NMeA = CN[C@@H](C)C(=O)O; dNMeA = CN[C@H](C)C(=O)O; dThz = O=C(O)[C@H]1CSCN1; Dab = NCC[C@H](N)C(=O)O; Dap = NC[C@H](N)C(=O)O; ξC = NC(CS)C(=O)O
Target: T1, Human PD-L1/PD-1 (Homo sapiens, UniProt Q9NZQ7)
T1 construct: TVMV protease cleavage site (C); made in house; host or cells: HEK293T cells
T1 sequence (Q9NZQ7 with tags, fused parts or gaps): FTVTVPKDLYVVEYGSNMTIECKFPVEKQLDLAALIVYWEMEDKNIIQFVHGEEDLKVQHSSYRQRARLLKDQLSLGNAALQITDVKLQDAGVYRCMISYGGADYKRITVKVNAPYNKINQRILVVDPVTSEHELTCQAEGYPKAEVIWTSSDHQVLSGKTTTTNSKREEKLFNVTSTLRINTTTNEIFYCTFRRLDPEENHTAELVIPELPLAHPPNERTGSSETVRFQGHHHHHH
Test: HTRF Human PD-L1/PD-1 binding assay (PD-1-Ig/PD-L1-His)
Details: PD-L1-His 10 nM, PD-1-Ig 20 nM; class symbol; read-out: HTRF Human PD-L1/PD-1 Binding Assay IC50 Range
Outline: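 Inhibitors were preincubated 15 min with human PD-L1(18-239)-His (10 nM final), then PD-1(25-167)-Ig (20 nM final) was added for 15 min in dPBS/0.1% BSA/0.05% Tween-20. Eu-cryptate anti-Ig (1 nM) and APC anti-His (20 nM) were added; 665/620 nm ratio read after 30 min.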

SMILES: CCCC[C@H]1C(=O)N(C)[C@@H](CCCC)C(=O)N[C@@H](CN)C(=O)N[C@H](C(=O)NCC(N)=O)CSCC(=O)N[C@@H](Cc2ccc(O)cc2)C(=O)N(C)[C@@H](C)C(=O)N[C@@H](CC(=O)O)C(=O)N2CCC[C@H]2C(=O)N[C@@H](Cc2c[nH]cn2)C(=O)N[C@@H](CCC(N)=O)C(=O)N2C[C@H](O)C[C@H]2C(=O)N[C@@H](Cc2c[nH]c3ccccc23)C(=O)N[C@@H](CO)C(=O)N[C@@H](Cc2cn(CC(=O)O)c3ccccc23)C(=O)N1C [Example 5163] ({CH2CO}-Y[NMeA]DPHQ[Hyp]WS[Trp(1-CH2COOH)][NMeNle][NMeNle][Dap]CG-NH2; thioether N-14)
- IC50: 1 to 9.9 nM

SMILES: CCCC[C@H]1C(=O)N(C)[C@@H](CCCC)C(=O)N[C@@H](CCC(=O)O)C(=O)N[C@H](C(=O)NCC(N)=O)CSCC(=O)N[C@@H](Cc2ccc(O)cc2)C(=O)N(C)[C@@H](C)C(=O)N[C@@H](CC(=O)O)C(=O)N2CCC[C@H]2C(=O)N[C@@H](Cc2cnc[nH]2)C(=O)N[C@@H](CCC(N)=O)C(=O)N2C[C@H](O)C[C@H]2C(=O)N[C@@H](Cc2c[nH]c3ccccc23)C(=O)N[C@@H](CO)C(=O)N[C@@H](Cc2cn(C)c3ccccc23)C(=O)N1C [Example 1500] ({CH2CO}-Y[NMeA]DPHQ[Hyp]WS[Trp(1-Me)][NMeNle][NMeNle]ECG-NH2; thioether N-14)
- IC50: 1 to 9.9 nM

SMILES: CC(C)C[C@@H]1NC(=O)[C@H](Cc2ccc(O)cc2)NC(=O)[C@H](Cc2c[nH]c3ccccc23)NC(=O)[C@@H](C)N(C)C(=O)[C@H](Cc2ccc(O)cc2)NC(=O)[C@H](Cc2ccccc2)N(C)C(=O)[C@H](C(C)C)NC(=O)[C@H](CCC(=O)O)NC(=O)[C@@H](C)N(C)C(=O)[C@H](C)N(C)C(=O)[C@H](Cc2ccccc2)N(C)C(=O)[C@H](Cc2cc(F)c(F)c(F)c2)NC(=O)CSC[C@@H](C(=O)NCC(N)=O)NC1=O [Example 9189] ({CH2CO}-[Phe(3,4,5-F3)][NMeF][NMeA][dNMeA]EV[NMeF]Y[dNMeA]WYLCG-NH2; thioether N-13)
- IC50: 1 to 9.9 nM

SMILES: CCCC[C@H]1C(=O)N(C)[C@@H](CCCC)C(=O)N[C@@H](CCC(=O)O)C(=O)N[C@H](C(=O)NCC(N)=O)CSCC(=O)N[C@@H](Cc2ccc(O)cc2)C(=O)N2CCOC[C@H]2C(=O)N[C@@H](CC(=O)O)C(=O)N2CCC[C@H]2C(=O)N[C@@H](CN)C(=O)N[C@@H](CCC(=O)O)C(=O)N2C[C@H](O)C[C@H]2C(=O)N[C@@H](Cc2c[nH]c3ccccc23)C(=O)N[C@@H](CO)C(=O)N[C@@H](Cc2c[nH]c3ccccc23)C(=O)N1C [Example 1520] ({CH2CO}-Y[Morpholine(3S-CO)]DP[Dap]E[Hyp]WSW[NMeNle][NMeNle]ECG-NH2; thioether N-14)
- IC50: 1 to 9.9 nM

SMILES: CCCC[C@H]1C(=O)N(C)[C@@H](CCCC)C(=O)N[C@@H](CC(=O)O)C(=O)N[C@H](C(=O)NCC(N)=O)CSCC(=O)N[C@@H](Cc2ccc(O)cc2)C(=O)N2CCCC[C@H]2C(=O)N[C@@H](CC(=O)O)C(=O)N2CCC[C@H]2C(=O)N[C@@H](Cc2cnc[nH]2)C(=O)N[C@@H](CCCCN)C(=O)N2C[C@H](O)C[C@H]2C(=O)N[C@@H](Cc2c[nH]c3ccccc23)C(=O)N[C@@H](CCCCN)C(=O)N[C@@H](Cc2cn(CC(=O)O)c3ccccc23)C(=O)N1C [Example 1302] ({CH2CO}-Y[Pip]DPHK[Hyp]WK[Trp(1-CH2COOH)][NMeNle][NMeNle]DCG-NH2; thioether N-14)
- IC50: 1 to 9.9 nM

SMILES: CCCC[C@H]1C(=O)N(C)[C@@H](CCCC)C(=O)N[C@@H](CCCNC(=N)N)C(=O)N[C@H](C(=O)NCC(N)=O)CSCC(=O)N[C@@H](Cc2ccc(O)cc2)C(=O)N(C)[C@@H](C)C(=O)N[C@@H](CC(N)=O)C(=O)N2CCC[C@H]2C(=O)N[C@@H](CO)C(=O)N[C@@H](CCO)C(=O)N2C[C@H](O)C[C@H]2C(=O)N[C@@H](Cc2c[nH]c3ccccc23)C(=O)N[C@@H](CCO)C(=O)N[C@@H](Cc2cn(CC(=O)O)c3ccccc23)C(=O)N1C [Example 6213] ({CH2CO}-Y[NMeA]NPS[hSer][Hyp]W[hSer][Trp(1-CH2COOH)][NMeNle][NMeNle]RCG-NH2; thioether N-14)
- IC50: 1 to 9.9 nM

SMILES: CCCC[C@H]1C(=O)N(C)[C@@H](CCCC)C(=O)N[C@@H](CN)C(=O)N[C@H](C(=O)NCC(N)=O)CSCC(=O)N[C@@H](Cc2ccc(O)cc2)C(=O)N(C)[C@@H](C)C(=O)N[C@@H](CC(N)=O)C(=O)N2CCC[C@H]2C(=O)N[C@@H](CN)C(=O)N[C@@H](CC(C)C)C(=O)N2C[C@H](O)C[C@H]2C(=O)N[C@@H](Cc2c[nH]c3ccccc23)C(=O)N[C@@H](CCN)C(=O)N[C@@H](Cc2cn(CC(=O)O)c3ccccc23)C(=O)N1C [Example 6303] ({CH2CO}-Y[NMeA]NP[Dap]L[Hyp]W[Dab][Trp(1-CH2COOH)][NMeNle][NMeNle][Dap]CG-NH2; thioether N-14)
- IC50: 1 to 9.9 nM

SMILES: CCCC[C@H]1C(=O)N2C[C@H](O)C[C@@H]2C(=O)N[C@@H](CC(=O)O)C(=O)N[C@@H](C(C)C)C(=O)N(C)[C@@H](Cc2ccccc2)C(=O)N[C@@H](CCC(=O)O)C(=O)N2CSC[C@@H]2C(=O)N[C@@H](Cc2c[nH]c3ccccc23)C(=O)N[C@@H](Cc2ccc(O)cc2)C(=O)N[C@@H](CC(C)C)C(=O)N[C@H](C(=O)NCC(N)=O)CSCC(=O)N[C@@H](Cc2cc(F)c(F)c(F)c2)C(=O)N(C)[C@@H](Cc2ccccc2)C(=O)N1C [Example 10148] ({CH2CO}-[Phe(3,4,5-F3)][NMeF][NMeNle][d(cisHyp)]DV[NMeF]E[dThz]WYLCG-NH2; thioether N-13)
- IC50: 1 to 9.9 nM

SMILES: CCCC[C@H]1C(=O)N2CSC[C@@H]2C(=O)N[C@@H](CO)C(=O)N[C@@H](C(C)C)C(=O)N(C)[C@@H](Cc2ccccc2)C(=O)N[C@@H](Cc2ccc(O)cc2)C(=O)N2CCC[C@@H]2C(=O)N[C@@H](Cc2c[nH]c3ccccc23)C(=O)N[C@@H](Cc2ccc(O)cc2)C(=O)N[C@@H](CC(C)C)C(=O)N[C@H](C(=O)NCC(N)=O)CSCC(=O)N[C@@H](Cc2ccccc2)C(=O)N(C)[C@@H](Cc2ccccc2)C(=O)N1C [Example 10074] ({CH2CO}-F[NMeF][NMeNle][dThz]SV[NMeF]Y[dP]WYLCG-NH2; thioether N-13)
- IC50: 10 to 99.9 nM

SMILES: CCCC[C@H]1C(=O)N2CCC[C@@H]2C(=O)N[C@@H](CC(=O)O)C(=O)N[C@@H](C(C)C)C(=O)N(C)[C@@H](C(C)C)C(=O)N[C@@H](Cc2ccc(O)cc2)C(=O)N2CCC[C@@H]2C(=O)N[C@@H](Cc2c[nH]c3ccccc23)C(=O)N[C@@H](Cc2ccc(O)cc2)C(=O)N[C@@H](CC(C)C)C(=O)N[C@H](C(=O)NCC(N)=O)CSCC(=O)N[C@@H](Cc2ccc(F)cc2)C(=O)N(C)[C@@H](Cc2ccccc2)C(=O)N1C [Example 9241] ({CH2CO}-[Phe(4-F)][NMeF][NMeNle][dP]DV[NMeV]Y[dP]WYLCG-NH2; thioether N-13)
- IC50: 1000 to 10000 nM

SMILES: CCCC[C@H]1C(=O)N2C[C@H](O)C[C@@H]2C(=O)N[C@@H](CC(=O)O)C(=O)N[C@@H](C(C)C)C(=O)N(C)[C@@H](Cc2ccccc2)C(=O)N[C@@H](CCC(N)=O)C(=O)N2C[C@H](O)C[C@@H]2C(=O)N[C@@H](Cc2c[nH]c3ccccc23)C(=O)N[C@@H](Cc2ccc(O)cc2)C(=O)N[C@@H](CC(N)=O)C(=O)N[C@H](C(=O)NCC(N)=O)CSCC(=O)N[C@@H](Cc2cc(F)c(F)c(F)c2)C(=O)N(C)[C@@H](Cc2ccccc2)C(=O)N1C [Example 9360] ({CH2CO}-[Phe(3,4,5-F3)][NMeF][NMeNle][d(cisHyp)]DV[NMeF]Q[d(cisHyp)]WYNCG-NH2; thioether N-13)
- IC50: 1 to 9.9 nM

SMILES: CCCC[C@H]1C(=O)N(C)[C@@H](CCCC)C(=O)N[C@@H](CCN)C(=O)N[C@H](C(=O)NCC(N)=O)CSCC(=O)N[C@@H](Cc2ccc(O)cc2)C(=O)N(C)[C@@H](C)C(=O)N[C@@H](CC(N)=O)C(=O)N2CCC[C@H]2C(=O)N[C@@H](Cc2cnc[nH]2)C(=O)N[C@@H](CCC(=O)O)C(=O)N2C[C@H](O)C[C@H]2C(=O)N[C@@H](Cc2c[nH]c3ccccc23)C(=O)N[C@@H](CCN)C(=O)N[C@@H](Cc2cn(CC(=O)O)c3ccccc23)C(=O)N1C [Example 6331] ({CH2CO}-Y[NMeA]NPHE[Hyp]W[Dab][Trp(1-CH2COOH)][NMeNle][NMeNle][Dab]CG-NH2; thioether N-14)
- IC50: 1 to 9.9 nM

SMILES: CCCC[C@H]1C(=O)N(C)[C@@H](CCOC)C(=O)N[C@@H](CN)C(=O)N[C@H](C(=O)NCC(N)=O)CSCC(=O)N[C@@H](Cc2ccc(O)cc2)C(=O)N(C)[C@@H](C)C(=O)N[C@@H](CC(=O)O)C(=O)N2CCC[C@H]2C(=O)N[C@@H](Cc2c[nH]cn2)C(=O)N[C@@H](CCC(N)=O)C(=O)N2C[C@H](O)C[C@H]2C(=O)N[C@@H](Cc2c[nH]c3ccccc23)C(=O)N[C@@H](CO)C(=O)N[C@@H](Cc2c[nH]c3ccccc23)C(=O)N1C [Example 10145] ({CH2CO}-Y[NMeA]DPHQ[Hyp]WSW[NMeNle][NMehSer](Me)[Dap]CG-NH2; thioether N-14)
- IC50: 1 to 9.9 nM

SMILES: CCCC[C@H]1C(=O)N(C)[C@@H](CCCC)C(=O)N[C@@H](C)C(=O)N[C@H](C(=O)NCC(N)=O)CSCC(=O)N[C@@H](Cc2ccc(O)cc2)C(=O)N2CCCC[C@H]2C(=O)N[C@@H](CC(=O)O)C(=O)N2CCC[C@H]2C(=O)N[C@@H](Cc2cnc[nH]2)C(=O)N[C@@H](CCC(N)=O)C(=O)N2C[C@H](O)C[C@H]2C(=O)N[C@@H](Cc2c[nH]c3ccccc23)C(=O)N[C@@H](CO)C(=O)N[C@@H](Cc2c[nH]c3ccccc23)C(=O)N1C [Example 1261] ({CH2CO}-Y[Pip]DPHQ[Hyp]WSW[NMeNle][NMeNle]ACG-NH2; thioether N-14)
- IC50: 1 to 9.9 nM

SMILES: CCCC[C@H]1C(=O)N(C)[C@@H](C)C(=O)N[C@@H](CCCNC(=N)N)C(=O)NC(C(=O)NCC(N)=O)CSCC(=O)N[C@@H](Cc2ccc(O)cc2)C(=O)N(C)[C@@H](C)C(=O)N[C@@H](CC(N)=O)C(=O)N2CCC[C@H]2C(=O)N[C@@H](CO)C(=O)N[C@H](CC(C)C)C(=O)N2C[C@H](O)C[C@H]2C(=O)N[C@@H](Cc2c[nH]c3ccccc23)C(=O)N[C@@H](CO)C(=O)N[C@@H](Cc2csc3ccccc23)C(=O)N1C (stereo partly drawn) [Example 9116] ({CH2CO}-Y[NMeA]NPS[dL][Hyp]WS[Bta][NMeNle][NMeA]R[ξC]G-NH2; thioether N-14)
- IC50: 10 to 99.9 nM
